Laboratory results taken from patent US20220323390A1, “DIETARY SUPPLEMENT TO PROMOTE GUT HEALTH” (TERRAGENICS NUTRITION, INC., priority 2019, published 2022).

Key:
Format in all cases: cell-based, human
claudin-1 = assay: qPCR gene expression of claudin-1 in Caco-2/HT29-MTX co-culture; conditions: 48 h; compared to the TNFα/IFNγ control
Experimental: (§1) Caco-2/HT29-MTX monolayers were cultured for 14 days, with three medium changes/week, until a functional cell monolayer with a transepithelial electrical resistance (TEER) was obtained. Cells were maintained in Dulbecco's Modified Eagle Medium (DMEM) containing glucose and glutamine and supplemented with HEPES and 20% (v/v) heat-inactivated (HI) fetal bovine serum (FBS). Before treatment, the TEER of the Caco-2/HT29-MTX monolayers was measured (0 h time point). The TEER of an empty insert was subtracted from all readings to account for the residual electrical resistance of an insert. The apical compartment (containing the Caco-2/HT29-MTX cells) was filled with sterile-filtered (0.22 μm) colonic batch suspensions. […] Cells were treated for 48 h and the TEER was measured at 24 h (=24 h time point) and 48 h (=48 h time point). […]
(§2) After 48 h, cells were lysed in RNA lysis buffer, centrifuged and the […] collected. qPCR is performed for tight junction genes (claudin-1, -2, -3 and -4, and occludin) and mucin genes (mucin 3); 2 housekeeping genes were Included. […] Mucins can be measured as disclosed for example in Leteutre, E. et al, Biology of the Cell 96 (2004) 145-151. Mucin turnover can be assessed as described for example in Schneider, H. et al, Nature Scientific Reports | (2018) 8:5760 | DOI:10.1038/s41598-018-24148-x. […]

claudin-3 = assay: qPCR gene expression of claudin-3 in Caco-2/HT29-MTX co-culture; conditions: 48 h; compared to the TNFα/IFNγ control
Experimental: as §1, §2

occludin = assay: qPCR gene expression of occludin in Caco-2/HT29-MTX co-culture; conditions: 48 h; compared to the TNFα/IFNγ control
Experimental: as §1, §2

[1] = tested on: Caco-2/HT29-MTX co-cultures; assay: Transepithelial electrical resistance (TEER) of TNFα/IFNγ-treated co-cultures given colonic batch samples; conditions: TNFα/IFNγ stimulation
Text: Caco-2, when seeded on suitable supports, spontaneously differentiate Into mature enterocyte-like cells, characterized by polarization, presence of villi, formation of domes, presence of tight junctions and vectorial transport and expression of apical brush-border enzymes (reviewed by Sambuy, Y., et al. (2005) Cell Biology and Toxicology. 21: 1-26). The mucus layer is mimicked by co-culturing Caco-2 cells with HT29-MTX cells, a mucin producing human cell line. This model is considered a useful in vitro intestinal model.
Barrier function was evaluated by measuring TEER and expression of tight junction and mucin genes in the co-culture model using TNF alpha/IFN gamma as an inflammatory insult. Inulin and sodium butyrate were used as positive controls. The test products were administered at three different concentrations. […]
Caco-2/HT29-MTX monolayers were cultured for 14 days, with three medium changes/week, until a functional cell monolayer with a transepithelial electrical resistance (TEER) was obtained. […] Before treatment, the TEER of the Caco-2/HT29-MTX monolayers was measured (0 h time point). The TEER of an empty insert was subtracted from all readings to account for the residual electrical resistance of an insert. […] Cells were treated for 48 h and the TEER was measured at 24 h (=24 h time point) and 48 h (=48 h time point). […]
TEER was measured again at 24 h and 48 h of incubation. […]

mucin-3 = assay: qPCR gene expression of mucin-3 in Caco-2/HT29-MTX co-culture; conditions: 48 h; compared to the TNFα/IFNγ control
Experimental: as §1, §2

claudin-2 = assay: qPCR gene expression of claudin-2 in Caco-2/HT29-MTX co-culture; conditions: 48 h; compared to the TNFα/IFNγ control
Experimental: as §1, §2

claudin-4 = assay: qPCR gene expression of claudin-4 in Caco-2/HT29-MTX co-culture; conditions: 48 h; compared to the TNFα/IFNγ control
Experimental: as §1, §2

CCCC(=O)[O-].[Na+] [Sodium butyrate]
expression of claudin-1 (claudin-1): No effect
expression of claudin-3 (claudin-3): increased the expression
expression of occludin (occludin): increased the expression
decrease in TEER ([1]; 24 h of incubation): approximately 80%
TEER relative to initial value ([1]; 48 h of incubation): increased the TEER above its initial value
expression of mucin-3 (mucin-3): strongly increased the expression
expression of claudin-2 (claudin-2): decreased the expression
expression of claudin-4 (claudin-4): increased the expression
